Measurements from PMC10865806, “Structural insights into the molecular mechanism of high-level ceftazidime–avibactam resistance conferred by CMY-185” (mBio, 2024).

Assays:
Assay in all cases: Competitive inhibition of cephalothin hydrolysis and avibactam inhibition kinetics
Assay type in all cases: biochemical, Escherichia coli
[1] = target: T1, CMY-2 variant A114E_N346Y (Klebsiella pneumoniae, UniProt Q48434, A134E/N366Y)
T1 construct: all CMY-2 variant genes encoding the mature enzyme without a signal peptide were cloned into the protein expression plasmid vector pET-30b; made in house; host or cells: E. coli BL21 (DE3), pET-30b
Description: (§1) We tested the enzymes, CMY-2, two single mutants V211S (CMY-42) and N346Y, three double mutants A114E_N346Y, Q120K_N346Y, and V211S_N346Y, and the quadruplet mutant CMY-185 to elucidate the impact on the kinetic properties resulting from the four amino acid substitutions present in CMY-185 compared with CMY-2 ([8]). The steady-state kinetic parameters kcat and Km (or Ki app) for nitrocefin, cephalothin, ceftazidime, and cefiderocol and the inhibition parameters Ki app, k2/K, k−2, and koff for avibactam are summarized in Table 1. During the hydrolysis of nitrocefin, we observed the reduction of the initial velocity at concentrations above 50 µM particularly for the CMY-2 variants harboring the N346Y substitution. As this could have represented substrate inhibition, we then determined the kinetics parameters for nitrocefin using the Haldane equation ([16]). […] In addition, during the hydrolysis of cefiderocol by CMY-185, the initial velocities at a concentration range of 3.7–59.4 µM were similar.
(§2) The steady-state kinetics were carried out on a UV-Visible spectrometer (UV-1280, Shimadzu, Japan) in PBS pH 7.2 at 25°C with a constant amount of enzyme and varying concentrations of the substrates. We tested nitrocefin, cephalothin, ceftazidime, and cefiderocol as the substrates and avibactam as the inhibitor. The steady-state kinetics parameters Km and kcat were determined with the Michaelis-Menten equation. For poorly hydrolyzed substrates, the Km value was assumed to be the competitive inhibition constant (Ki app) value according to previous studies ([17], [19]). Inhibition parameter values of Ki app, k2/K, k−2, and koff for avibactam were determined using a method as described previously ([33]). Cephalothin was used as the reporter substrate for competitive inhibition experiments, and its concentration was fixed at 100 µM. The enzyme concentration was 1–10 nM. Inverse steady-state initial velocities were plotted against the concentration of the competitive inhibitor agents, such as ceftazidime, cefiderocol, and avibactam. The data were analyzed by linear regression analysis of the Dixon plot, and Ki app (observed) was determined by dividing the y-intercept value by the slope of the line. It was then corrected to account for the affinity of cephalothin for each enzyme using the Equation (1):
(§3) (1) Ki app=Ki app (observed)/{1+[S]/Km (cephalothin)}
(§4) where [S] represents the concentration of the reporter substrate cephalothin, and Km (cephalothin) is the Km value of cephalothin for each enzyme.
(§5) The koff value was determined using a jump dilution assay. The enzyme and avibactam were mixed and preincubated at 25°C for 5 min. The concentration of avibactam depended on the enzyme and concentrations 10-fold higher from each Ki app (observed) value were adopted, which were determined based on the corrected competitive inhibition constants Ki app. Preincubated enzyme-avibactam mixture was then diluted 2,000-fold in the 100 µM cephalothin solution, and the hydrolysis of cephalothin was measured. Three independent measurements were performed for each enzyme and substrate or inhibitor combination. Curve fittings using linear or non-linear regression were performed with R 4.1.3 (R Core Team, 2022).

CMY-185 = target: T2, CMY-185 (Klebsiella pneumoniae, UniProt Q48434, A134E/N366Y/Q140K/V231S)
T2 construct: all CMY-2 variant genes encoding the mature enzyme without a signal peptide were cloned into the protein expression plasmid vector pET-30b; made in house; host or cells: E. coli BL21 (DE3), pET-30b
Description: as §1, §2, §3, §4, §5

[2] = target: T3, CMY-2 variant V211S_N346Y (Klebsiella pneumoniae, UniProt Q48434, N366Y/V231S)
T3 construct: all CMY-2 variant genes encoding the mature enzyme without a signal peptide were cloned into the protein expression plasmid vector pET-30b; made in house; host or cells: E. coli BL21 (DE3), pET-30b
Description: as §1, §2, §3, §4, §5

CMY-2 = target: T4, CMY-2 (Klebsiella pneumoniae, UniProt Q48434)
T4 construct: all CMY-2 variant genes encoding the mature enzyme without a signal peptide were cloned into the protein expression plasmid vector pET-30b; made in house; host or cells: E. coli BL21 (DE3), pET-30b
Description: as §1, §2, §3, §4, §5

[3] = target: T5, CMY-2 variant Q120K_N346Y (Klebsiella pneumoniae, UniProt Q48434, N366Y/Q140K)
T5 construct: all CMY-2 variant genes encoding the mature enzyme without a signal peptide were cloned into the protein expression plasmid vector pET-30b; made in house; host or cells: E. coli BL21 (DE3), pET-30b
Description: as §1, §2, §3, §4, §5

CMY-2 variant N346Y = target: T6, CMY-2 variant N346Y (Klebsiella pneumoniae, UniProt Q48434, N366Y)
T6 construct: all CMY-2 variant genes encoding the mature enzyme without a signal peptide were cloned into the protein expression plasmid vector pET-30b; made in house; host or cells: E. coli BL21 (DE3), pET-30b
Description: as §1, §2, §3, §4, §5

V211S (CMY-42) = target: T7, V211S (CMY-42) (Klebsiella pneumoniae, UniProt Q48434, V231S)
T7 construct: all CMY-2 variant genes encoding the mature enzyme without a signal peptide were cloned into the protein expression plasmid vector pET-30b; made in house; host or cells: E. coli BL21 (DE3), pET-30b
Description: as §1, §2, §3, §4, §5

[4] = reporter substrate cephalothin 100 µM, Dixon plot, read-out: Ki app

Q: Which “k−2” value ([1]; decarbamoylation rate constant) does the source give for NC(=O)[C@@H]1CC[C@@H]2CN1C(=O)N2OS(=O)(=O)O [Avibactam, avibactam] here?
A: The value was 0.00011 ± 0 s⁻¹.

Q: What about the koff ([1]; jump dilution assay) of the same compound?
A: The koff was 9e-07 s⁻¹.

Q: And the Ki [1, 4]?
A: The Ki was 80 ± 9 µM.

Q: What about the “k−2” value (CMY-185; CMY-185, decarbamoylation rate constant) of the same compound?
A: The value was 0.0007 ± 5e-05 s⁻¹.

Q: And the koff (CMY-185; CMY-185, jump dilution assay)?
A: The koff was 4.8e-07 s⁻¹.

Q: What about the Ki (CMY-185; CMY-185, reporter substrate cephalothin 100 µM, Dixon plot, read-out: Ki app) of the same compound?
A: The Ki was 1300 µM.

Q: What about the “fold higher Ki app” value (CMY-185; CMY-185 compared to CMY-2 and V211S) of the same compound?
A: The value was 20,000 fold.

Q: And the “k−2” value ([2]; decarbamoylation rate constant)?
A: The value was 0.00044 ± 0.00021 s⁻¹.

Q: What about the koff ([2]; jump dilution assay) of the same compound?
A: Its koff is 2.4e-06 s⁻¹.

Q: And the Ki [2, 4]?
A: The Ki was 14 ± 4 µM.

Q: And the “k−2” value (CMY-2; decarbamoylation rate constant)?
A: Its value is 0.00012 ± 2e-05 s⁻¹.

Q: What about the koff (CMY-2; jump dilution assay) of the same compound?
A: Its koff is 7.3e-05 s⁻¹.

Q: And the Ki (CMY-2; [4])?
A: The Ki was 0.063 µM.

Q: What about the kinact/KI (CMY-2; second-order carbamoylation rate constant, read-out: k2/K) of the same compound?
A: Its kinact/KI is 28000 M⁻¹ s⁻¹.

Q: What about the “fold higher Ki app” value ([3]; Q120K_N346Y compared to CMY-2 and V211S) of the same compound?
A: Its value is 10,000 fold.

Q: And the “fold higher Ki app” value ([3]; Q120K_N346Y compared to N346Y)?
A: Its value is 10 fold.

Q: And the “k−2” value ([3]; Q120K_N346Y, decarbamoylation rate constant)?
A: The value was 0.002 ± 0.0001 s⁻¹.

Q: What about the koff ([3]; Q120K_N346Y, jump dilution assay) of the same compound?
A: The koff was 4e-06 s⁻¹.

Q: And the Ki ([3]; Q120K_N346Y, reporter substrate cephalothin 100 µM, Dixon plot, read-out: Ki app)?
A: Its Ki is 590 µM.

Q: What about the “fold higher Ki app” value (CMY-2 variant N346Y; N346Y compared to CMY-2 and V211S) of the same compound?
A: Its value is 1,000 fold.

Q: And the “k−2” value (CMY-2 variant N346Y; N346Y, decarbamoylation rate constant)?
A: Its value is 1e-05 ± 0.00016 s⁻¹.

Q: And the koff (CMY-2 variant N346Y; N346Y, jump dilution assay)?
A: Its koff is 2.6e-06 s⁻¹.

Q: And the Ki (CMY-2 variant N346Y; N346Y, reporter substrate cephalothin 100 µM, Dixon plot, read-out: Ki app)?
A: Its Ki is 41 ± 6 µM.

Q: What about the “k−2” value (V211S (CMY-42); decarbamoylation rate constant) of the same compound?
A: The value was 0.00015 ± 2e-05 s⁻¹.

Q: What about the koff (V211S (CMY-42); jump dilution assay) of the same compound?
A: Its koff is 6e-05 s⁻¹.

Q: What about the Ki (V211S (CMY-42); [4]) of the same compound?
A: Its Ki is 0.034 µM.
